According to patent US9169234B2, “Sepiapterin reductase inhibitors for the treatment of pain” (Children's Medical Center Corporation, priority 2009, dated 2015):
pIC50: −log10 of the molar value. Read-outs that look alike come from different tables or passages of the source.

Biological target: recombinant human SPR (Sepiapterin Reductase) (Homo sapiens (Human), UniProt P35270)
Test: SPR inhibition biochemical assay with chromogenic (OD at 420 nm) and LC/MS (L-biopterin formation) read-out
Description: The compounds described herein were screened for activity as inhibitors of Sepiapterin Reductase (SPR).
Bacteria were grown at 37° C., and expression of SPR protein was induced for 4 hours.
To screen for SPR inhibition, a biochemical assay based on LC/MS (and chromogenic) read-out has been developed. The LC/MS assay monitors the product formation (L-biopterin) and the chromogenic assay measures OD at 420 nm.
N-methoxyacetyl serotonin was used as a reference compound (positive control).
The exemplary assay protocol uses the following conditions: SPR (6 nM); L-Sepiapterin (50 μM); NADPH (100 μM); Na-Phosphate buffer, pH 6.5 (100 mM); 82 μL assay volume; 60 minutes incubation with compounds (0.5% final concentration in DMSO) at 37° C. in Greiner μClear® 384 well plates.
For example, the compounds of Table 1 were screened using this additional method in triplicate.

[1] = LC/MS read-out, L-biopterin product formation, SPR 6 nM, L-Sepiapterin 50 μM, NADPH 100 μM, pH 6.5, 60 minutes at 37° C., read-out: IC50 LC/MS
[2] = chromogenic read-out, OD at 420 nm, SPR 6 nM, L-Sepiapterin 50 μM, NADPH 100 μM, pH 6.5, 60 minutes at 37° C., read-out: IC50 chromogenic

Sequence of recombinant human SPR (Sepiapterin Reductase) (P35270 whole entry): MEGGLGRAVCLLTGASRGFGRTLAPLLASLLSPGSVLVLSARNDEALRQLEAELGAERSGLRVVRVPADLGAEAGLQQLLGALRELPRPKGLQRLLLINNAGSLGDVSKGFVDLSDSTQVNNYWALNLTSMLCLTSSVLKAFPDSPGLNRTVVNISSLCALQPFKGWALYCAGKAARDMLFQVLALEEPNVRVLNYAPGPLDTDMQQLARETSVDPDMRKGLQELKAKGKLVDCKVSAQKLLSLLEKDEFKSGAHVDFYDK

Compound	pIC50 [1]	pIC50 [2]	pIC50 (reference compound (positive control), read-out not specified, read-out: IC50 measured using the screening conditions)
COCC(=O)NCCc1c[nH]c2ccc(O)cc12 [N-Methoxyacetyl-Serotonin, reference compound]	7.37	7.38	7.40 to 7.70
COCC(=O)NCCc1cn(C)c2ccc(O)cc12 [(21)]	7.07	7.08	–
COCC(=O)NCCc1cccc(O)c1 [(32)]	7.16	7.19	–
O=C(NCCc1c[nH]c2ccc(O)cc12)C1CC1 [(2)]	6.47	6.44	–
COCC(=O)NCCc1c[nH]c2ccc(S(C)(=O)=O)cc12 [(17)]	5.49	5.35	–
COCC(=O)NCC(=O)c1c[nH]c2ccc(O)cc12 [(24)]	6.51	6.51	–
CCOCC(=O)NCCc1c[nH]c2ccc(O)cc12 [(3)]	5.66	5.55	–
Oc1ccc2[nH]cc(CCNc3cccnc3)c2c1 [(12)]	5.80	5.68	–
COCC(=O)NCCc1c[nH]c2ccc(F)cc12 [(16)]	5.55	5.47	–
CC(C)C(=O)NCCc1c[nH]c2ccc(O)cc12 [(1)]	6.48	6.40	–
